Measured values published in PubChem BioAssay (NCI).
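Exposure lasted 48 hours, with cells grown in 96-well plates and compounds tested at five concentrations. GI50 marks 50% less growth. TGI denotes the concentration required for complete inhibition of growth.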

How the values were obtained:
Assay in all cases: NCI tumour cell line growth inhibition, 48 h
NCI/ADR-RES ovarian = system: NCI/ADR-RES ovarian
NCI-H23 lung = system: NCI-H23 lung
SF-268 CNS = system: SF-268 CNS
786-0 renal = system: 786-0 renal
MALME-3M melanoma = system: MALME-3M melanoma
K-562 leukemia = system: K-562 leukemia
HCC-2998 colon = system: HCC-2998 colon
SNB-19 CNS = system: SNB-19 CNS
CAKI-1 renal = system: CAKI-1 renal
UO-31 renal = system: UO-31 renal
ACHN renal = system: ACHN renal
NCI-H460 lung = system: NCI-H460 lung
HS 578T breast = system: HS 578T breast
SK-MEL-2 melanoma = system: SK-MEL-2 melanoma
BT-549 breast = system: BT-549 breast
SW-620 colon = system: SW-620 colon
UACC-257 melanoma = system: UACC-257 melanoma
UACC-62 melanoma = system: UACC-62 melanoma
OVCAR-5 ovarian = system: OVCAR-5 ovarian
NCI-H226 lung = system: NCI-H226 lung
SN12C renal = system: SN12C renal
MCF7 breast = system: MCF7 breast
M14 melanoma = system: M14 melanoma
OVCAR-4 ovarian = system: OVCAR-4 ovarian
T-47D breast = system: T-47D breast
U251 CNS = system: U251 CNS
HT29 colon = system: HT29 colon
HCT-116 colon = system: HCT-116 colon
DU-145 prostate = system: DU-145 prostate
A549 NSCLC = system: A549 NSCLC
OVCAR-3 ovarian = system: OVCAR-3 ovarian
SF-539 CNS = system: SF-539 CNS
NCI-H522 lung = system: NCI-H522 lung
HCT-15 colon = system: HCT-15 colon
HOP-92 NSCLC = system: HOP-92 NSCLC
MDA-MB-435 = system: MDA-MB-435
HL-60(TB) leukemia = system: HL-60(TB) leukemia
RXF 393 renal = system: RXF 393 renal
COLO 205 colon = system: COLO 205 colon
LOX IMVI melanoma = system: LOX IMVI melanoma
RPMI-8226 leukemia = system: RPMI-8226 leukemia
SK-OV-3 ovarian = system: SK-OV-3 ovarian
EKVX NSCLC = system: EKVX NSCLC
SK-MEL-28 melanoma = system: SK-MEL-28 melanoma
MOLT-4 leukemia = system: MOLT-4 leukemia
IGROV1 ovarian = system: IGROV1 ovarian
TK-10 renal = system: TK-10 renal
OVCAR-8 ovarian = system: OVCAR-8 ovarian
MDA-MB-231 breast = system: MDA-MB-231 breast
A498 renal = system: A498 renal
SNB-75 CNS = system: SNB-75 CNS
SK-MEL-5 melanoma = system: SK-MEL-5 melanoma
KM12 colon = system: KM12 colon

SMILES: O=C(Cc1n[nH]c(=O)c2ccccc12)OCc1c(Cl)cccc1Cl
- GI50 (NCI/ADR-RES ovarian): 93.6 µM
- TGI (NCI/ADR-RES ovarian): > 100 µM
- GI50 (NCI-H23 lung): > 100 µM
- TGI (NCI-H23 lung): > 100 µM
- GI50 (SF-268 CNS): 9.21 µM
- TGI (SF-268 CNS): > 100 µM
- GI50 (786-0 renal): 15.1 µM
- TGI (786-0 renal): > 100 µM
- GI50 (MALME-3M melanoma): 48.5 µM
- TGI (MALME-3M melanoma): > 100 µM
- GI50 (K-562 leukemia): 4.19 µM
- TGI (K-562 leukemia): > 100 µM
- GI50 (HCC-2998 colon): 50.4 µM
- TGI (HCC-2998 colon): > 100 µM
- GI50 (SNB-19 CNS): 15.6 µM
- TGI (SNB-19 CNS): > 100 µM
- GI50 (CAKI-1 renal): 26.2 µM
- TGI (CAKI-1 renal): > 100 µM
- GI50 (UO-31 renal): > 100 µM
- TGI (UO-31 renal): > 100 µM
- GI50 (ACHN renal): 82 µM
- TGI (ACHN renal): > 100 µM
- GI50 (NCI-H460 lung): 2.39 µM
- TGI (NCI-H460 lung): > 100 µM
- GI50 (HS 578T breast): 17.4 µM
- TGI (HS 578T breast): > 100 µM
- GI50 (SK-MEL-2 melanoma): > 100 µM
- TGI (SK-MEL-2 melanoma): > 100 µM
- GI50 (BT-549 breast): 16.3 µM
- TGI (BT-549 breast): > 100 µM
- GI50 (SW-620 colon): 49.8 µM
- TGI (SW-620 colon): > 100 µM
- GI50 (UACC-257 melanoma): > 100 µM
- TGI (UACC-257 melanoma): > 100 µM
- GI50 (UACC-62 melanoma): 8.55 µM
- TGI (UACC-62 melanoma): > 100 µM
- GI50 (OVCAR-5 ovarian): > 100 µM
- TGI (OVCAR-5 ovarian): > 100 µM
- GI50 (NCI-H226 lung): 9.97 µM
- TGI (NCI-H226 lung): > 100 µM
- GI50 (SN12C renal): > 100 µM
- TGI (SN12C renal): > 100 µM
- GI50 (MCF7 breast): > 100 µM
- TGI (MCF7 breast): > 100 µM
- GI50 (M14 melanoma): > 100 µM
- TGI (M14 melanoma): > 100 µM
- GI50 (OVCAR-4 ovarian): > 100 µM
- TGI (OVCAR-4 ovarian): > 100 µM
- GI50 (T-47D breast): 24.6 µM
- TGI (T-47D breast): > 100 µM
- GI50 (U251 CNS): 8.39 µM
- TGI (U251 CNS): > 100 µM
- GI50 (HT29 colon): 15.6 µM
- TGI (HT29 colon): > 100 µM
- GI50 (HCT-116 colon): 3.64 µM
- TGI (HCT-116 colon): > 100 µM
- GI50 (DU-145 prostate): 53.4 µM
- TGI (DU-145 prostate): > 100 µM
- GI50 (A549 NSCLC): > 100 µM
- TGI (A549 NSCLC): > 100 µM
- GI50 (OVCAR-3 ovarian): 41.9 µM
- TGI (OVCAR-3 ovarian): > 100 µM
- GI50 (SF-539 CNS): 10.1 µM
- TGI (SF-539 CNS): > 100 µM
- GI50 (NCI-H522 lung): > 100 µM
- TGI (NCI-H522 lung): > 100 µM
- GI50 (HCT-15 colon): 1.74 µM
- TGI (HCT-15 colon): > 100 µM
- GI50 (HOP-92 NSCLC): > 100 µM
- TGI (HOP-92 NSCLC): > 100 µM
- GI50 (MDA-MB-435): > 100 µM
- TGI (MDA-MB-435): > 100 µM
- GI50 (HL-60(TB) leukemia): 6.53 µM
- TGI (HL-60(TB) leukemia): > 100 µM
- GI50 (RXF 393 renal): 24.1 µM
- TGI (RXF 393 renal): 68.3 µM
- GI50 (COLO 205 colon): 5.63 µM
- TGI (COLO 205 colon): > 100 µM
- GI50 (LOX IMVI melanoma): 5.16 µM
- TGI (LOX IMVI melanoma): > 100 µM
- GI50 (RPMI-8226 leukemia): 82.4 µM
- TGI (RPMI-8226 leukemia): > 100 µM
- GI50 (SK-OV-3 ovarian): 12.8 µM
- TGI (SK-OV-3 ovarian): > 100 µM
- GI50 (EKVX NSCLC): > 100 µM
- TGI (EKVX NSCLC): > 100 µM
- GI50 (SK-MEL-28 melanoma): > 100 µM
- TGI (SK-MEL-28 melanoma): > 100 µM
- GI50 (MOLT-4 leukemia): 4.07 µM
- TGI (MOLT-4 leukemia): > 100 µM
- GI50 (IGROV1 ovarian): > 100 µM
- TGI (IGROV1 ovarian): > 100 µM
- GI50 (TK-10 renal): 41 µM
- TGI (TK-10 renal): > 100 µM
- GI50 (OVCAR-8 ovarian): 36.5 µM
- TGI (OVCAR-8 ovarian): > 100 µM
- GI50 (MDA-MB-231 breast): 69.8 µM
- TGI (MDA-MB-231 breast): > 100 µM
- GI50 (A498 renal): > 100 µM
- TGI (A498 renal): > 100 µM
- GI50 (SNB-75 CNS): 25.8 µM
- TGI (SNB-75 CNS): > 100 µM
- GI50 (SK-MEL-5 melanoma): 4.18 µM
- TGI (SK-MEL-5 melanoma): > 100 µM
- GI50 (KM12 colon): 24.2 µM
- TGI (KM12 colon): > 100 µM
